{
  "source": "patent US20220226339A1",
  "about": "“INHIBITATION OF ACID LIPASE FOR CANCER THERAPY” (Heinrich-Heine-Universität Düsseldorf, priority 2019, published 2022)",
  "key": {"MDA-MB-231 cancer cells [1]": {"system": "MDA-MB-231 cancer cells", "assay": "Cell proliferation of MDA-MB-231 cancer cells (CellTiterGlo)", "format": "cell-based, human", "details": "MDA-MB-231, 3 days, 15% FCS RPMI, Lalistat concentrations descending from 50 μM, non-cell-toxic range", "description": "Cell proliferation was ascertained using Cell-TiterGlo®.\nMDA-MB-231 cancer cells were incubated with Lalistat 2 (selective LAL inhibitor) or the formulation control (mock).\nMDA-MB-231 cancer cells were incubated with Lalistat 2 (selective LAL inhibitor) or the formulation control (mock). For the formulation control, […] alone was used with the same concentration of DMSO as for Lalistat 2. 24 hours after seeding, the cancer cells were incubated for 3 days in 15% FCS-containing RPMI medium having concentrations of Lalistat descending from 50 μM or the corresponding DMSO concentration as control. Subsequently, CellTiterGlo® (Promega) was used to quantify the number of vital cancer cells."}, "MDA-MB-231 cancer cells [2]": {"system": "MDA-MB-231 cancer cells", "assay": "Relative expression of tumor stem cell markers and vimentin by quantitative PCR", "format": "cell-based, human", "details": "MDA-MB-231, 6 days, 50 μM Lalistat vs 0.05% DMSO", "description": "24 hours after seeding, MDA-MB-231 cancer cells were incubated for 6 days in 15% FCS-containing RPMI medium containing 50 μM Lalistat or formulation control (0.05% DMSO). Subsequently, the relative expression of the (A-C) tumor stem cell markers ALDH1, CD44 and the ratio CD44/CD24 and of the (D) mesenchymal marker vimentin was analyzed by means of quantitative PCR. The values were normalized to the housekeepers GAPDH or HRPT1. The target was amplified in a singleplex assay using “SYBR Green”.\nThe results of two independent experiments with three biological replicates in each case are depicted. Significance difference compared to formulation control: ALDH: 0.0026 (GAPDH), 0.0004 (HRPT1); CD44: […] (GAPDH/HRPT1); CD44/CD24: <0.01"}, "[3]": {"system": "PD-L1 expression on cancer cells", "assay": "PD-L1 expression on cancer cells after Lalistat treatment", "format": "cell-based"}},
  "data": [
    {"smiles": "O=C(Oc1nsnc1N1CCCCC1)N1CCCCC1", "note": "[Lalistat 2, 4-(piperidin-1-yl)-1,2,5-thiadiazol-3-yl piperidine-1-carboxylate]", "values": [
      {"measurement": "cell proliferation compared to formulation control", "setting": "MDA-MB-231 cancer cells [1]", "result": "antiproliferative effect"},
      {"measurement": "cell proliferation compared to formulation control", "setting": "MDA-MB-231 cancer cells [1]; listed as Lalistat", "result": "distinct inhibition of cell proliferation"},
      {"measurement": "expression of mesenchymal marker vimentin", "setting": "MDA-MB-231 cancer cells [2]; qPCR", "result": "reduction in the expression"},
      {"measurement": "expression of (tumor) stem cell markers (ALDH1, CD44, ratio CD44/CD24)", "setting": "MDA-MB-231 cancer cells [2]; qPCR normalized to GAPDH or HRPT1", "result": "reduction in the expression"},
      {"measurement": "PD-L1 expression on cancer cells", "setting": "[3]", "result": "reduced PD-L1 expression"}
    ]}
  ]
}
